Consider two molecules from ChEMBL document CHEMBL1121692, “Synthesis of fluorine-containing peptides. Analogues of angiotensin II containing hexafluorovaline” (J Med Chem, 1981).

The species entered for this assay is Rattus norvegicus. Description: Agonist activity relative to angiotensin II in uterine contraction was estimated in rat using rat oxytocic assay.

SMILES strings stand for the structures. Residues, ends and D or L forms follow the SMILES beside them.

With `CC(C)[C@H](NC(=O)[C@H](CCCN=C(N)N)NC(=O)[C@@H](N)CC(=O)O)C(=O)N[C@@H](Cc1ccc(O)cc1)C(=O)N[C@H](C(=O)N[C@@H](Cc1c[nH]cn1)C(=O)N1CCC[C@H]1C(=O)N[C@@H](Cc1ccccc1)C(=O)O)C(C(F)(F)F)C(F)(F)F` (HELM PEPTIDE1{D.R.V.Y.[O=C([C@@H](N[*:1])C(C(F)(F)F)C(F)(F)F)[*:2]].H.P.F}$$$$V2.0), the Relative activity was 133%.

Turning to `CC(C)[C@H](NC(=O)[C@H](CCCN=C(N)N)NC(=O)[C@@H](N)CC(=O)O)C(=O)N[C@@H](Cc1ccc(O)cc1)C(=O)N[C@@H](C(=O)N[C@@H](Cc1c[nH]cn1)C(=O)N1CCC[C@H]1C(=O)N[C@@H](Cc1ccccc1)C(=O)O)C(C(F)(F)F)C(F)(F)F` (HELM PEPTIDE1{D.R.V.Y.[O=C([C@H](N[*:1])C(C(F)(F)F)C(F)(F)F)[*:2]].H.P.F}$$$$V2.0), the Relative activity is on record as less than 1%.
